Results: PMC10584170, “Machine learning-based phenotypic imaging to characterise the targetable biology of Plasmodium falciparum male gametocytes for the development of transmission-blocking antimalarials” (PLOS Pathogens, 2023)

Key:
[1] = tested on: P. falciparum male gametocytes; assay: P. falciparum Dual Gamete Formation Assay (PfDGFA), male readout (exflagellation); assay type: cell-based, Plasmodium falciparum NF54; conditions: for % inhibition male (individual replicates) R1: replicate R1; for % inhibition male (individual replicates) R4: replicate R4; for Average inhibition male (%): average of replicates; for % inhibition male (individual replicates) R3: replicate R3; for Activity: hit = >50% inhibition in male or female readout in at least 3 replicates, 0 = no class assigned
Description: (§1) P. falciparum NF54 (originally isolated from an imported malaria case in the Netherlands in the 1980s; BEI Resources, cat. No. MRA-1000) strain asexual parasites were maintained between 0.3–5% parasitaemia by regular passage in complete culture medium (RPMI supplemented with 25 mM HEPES, 50 μg ml^−1 hypoxanthine, 4.8 g l^−1 NaHCO3, 2mM L-glutamine, 5% pooled type AB serum, 0.5% Albumax II (Gibco)) at 4% haematocrit in washed whole blood (National Blood and Transfusion Service or Centro de Transfusiones de la Comunidad de Madrid CTCM) under a 1% O2/3% CO2/96% N2 environment. Gametocytes were induced by seeding culture flasks at 2% parasitaemia/4% haematocrit and subjecting them to daily medium changes for 14 days whilst maintaining a temperature of 37°C at all times. On Day 14, the maturity of gametocytes was assessed by quantifying male gametogenesis (exflagellation). A 20 μl sample of gametocyte culture was mixed with equal volume of ookinete medium (complete culture medium supplemented with 0.1 μM xanthurenic acid) at room temperature and transferred to a haemocytometer. After 20 min at room temperature, exflagellation was accurately quantified as described in Delves et al. 2016 [17].
(§2) The Pf DGFA was performed as described in Delves et al. 2016 [17]. […] Plates were then incubated for 24 h at 37°C in a humidified box under a 1% O2/3% CO2/96% N2 gas mix. Gametogenesis was triggered by addition of 10 μl per well of ookinete medium + 0.27 μg ml^-1 Cy3-labelled anti-Pfs25 antibody. Plates were incubated on a metal block at 4°C for 4 min to ensure even cooling, then 28°C for a further 4 min. Exflagellation was recorded by capturing 10 frames over 1 s under brightfield illumination using a x4 objective with a 1.5x zoom (effectively x6) attached to an automated Nikon Ti fluorescence microscope. After recording exflagellation, plates were incubated for a further 24 h in the dark at 28°C to ensure maximal expression of Pfs25 by female gametes. The plates were then returned to the microscope and female gametes imaged at x6 using fluorescence microscopy.
(§3) Exflagellation centres and female gametes were quantified using custom image analysis pipelines developed within ICY Bioimage Analysis (https://icy.bioimageanalysis.org/).

[2] = tested on: P. falciparum female gametocytes; assay: P. falciparum Dual Gamete Formation Assay (PfDGFA), female readout (Pfs25-positive female gametes); assay type: cell-based, Plasmodium falciparum NF54; conditions: for % inhibition female (individual replicates) R1: replicate R1; for % inhibition female (individual replicates) R3: replicate R3; for % inhibition female (individual replicates) R4: replicate R4; for Average inhibition female (%): average of replicates
Description: as §1, §2, §3

[3] = PfDGFA at 2µM, 24h preincubation with gametocytes prior to induction of gametogenesis
[4] = PfDGFA at 2µM, 24h preincubation
[5] = 2µM, 24h preincubation with gametocytes prior to induction of gametogenesis
[6] = 2µM, 24h preincubation, number of replicates with >50% inhibition in the male readout
[7] = 2µM, 24h preincubation, number of replicates with >50% inhibition in the female readout
[8] = 2µM, 24h preincubation, hits selected on >50% inhibition in the male readout across replicates
[9] = 2µM, 24h preincubation, hits selected on >50% inhibition in the female readout across replicates

SMILES | % inhibition male (individual replicates) R1 [1, 3] [%] | % inhibition male (individual replicates) R4 [1, 3] [%] | Average inhibition male (%) [1, 4] [%] | % inhibition female (individual replicates) R1 [2, 3] [%] | % inhibition female (individual replicates) R3 [2, 3] [%] | % inhibition female (individual replicates) R4 [2, 3] [%] | Average inhibition female (%) [2, 4] [%] | Average inhibition male (%) [1, 5] [%] | % inhibition male (individual replicates) R1 [1, 5] [%] | % inhibition male (individual replicates) R3 [1, 5] [%] | % inhibition male (individual replicates) R4 [1, 5] [%] | HitlevelM [1, 6] | Average inhibition female (%) [2, 5] [%] | % inhibition female (individual replicates) R1 [2, 5] [%] | % inhibition female (individual replicates) R3 [2, 5] [%] | % inhibition female (individual replicates) R4 [2, 5] [%] | HitlevelF [2, 7] | HitlevelM [1, 8] | Activity [1, 4] | HitlevelF [2, 9]
COc1cc(C(=O)NC2CCc3ccccc32)cc(Cl)c1OC (centres unmarked) [TCMDC-124601] | 0.65 | 7.9 | 1.1 | 1.9 | -2.4 | 1.9 | -0.8 |  |  |  |  |  |  |  |  |  |  |  |  | 
CN1CCC(N2CCC(Oc3cccc(C(=O)NCCCC4CCCC4)c3)CC2)CC1 [TCMDC-124677] |  |  |  |  |  |  |  | 46.8 | 55.2 | 20.7 | 57.6 | 3 | 28.5 | 33.3 | 20.8 | 15.0 | 0 |  |  | 
Cc1ccc(-n2cc(CNCC3CCN(CCO)CC3)c(-c3ccc(F)cc3)n2)cc1 [TCMDC-124689] |  |  |  |  |  |  |  | 53.6 | 49.0 |  | 58.1 | 2 | 19.9 | 20.1 | 19.4 | 10.0 | 0 |  |  | 
O=C(c1ccc([N+](=O)[O-])o1)N1CCN(c2nc3c(F)cc(F)cc3s2)CC1 [TCMDC-125149] |  |  |  |  |  |  |  | 6.8 | 35.5 | -37.1 | -11.8 |  | 6.5 | 10.3 | -4.5 | 0.07 |  | 0 | 0 | 0
CNCCCNCc1ccc(-c2ccc(F)c(Cl)c2)o1.Cl [TCMDC-125237] |  |  |  |  |  |  |  | 15.1 | 6.0 |  | 19.5 |  | 13.7 | 17.7 | 9.1 | 15.1 |  | 0 | 0 | 0
